According to publication PMC9739180, “Discovery of a Flavonoid FM04 as a Potent Inhibitor to Reverse P-Glycoprotein-Mediated Drug Resistance in Xenografts and Improve Oral Bioavailability of Paclitaxel” (International Journal of Molecular Sciences, 2022):

Columns and labels:
[1] = target: T1, P-gp (Homo sapiens, UniProt P08183); assay: Intracellular DOX accumulation assay in LCC6MDR cells
[2] = Cytotoxicity assay (MTS, 3 days), LCC6MDR; assay type: cell-based, human; details: human, LCC6MDR cells
Protocol: (§1) To each well of 96-well plate, 10,000 cells of LCC6, LCC6MDR or L929 were incubated with different concentrations of FM04 (0, 0.4, 1.2, 3.7, 11, 33 and 100 μM). The final volume in each well of 96-well plate was 100 μL and the plate was incubated for 3 days at 37 °C. The cell viability was determined using MTS assay as reported previously.

[3] = test system: LCC6MDR; assay: Cytotoxicity assay (MTS, 3 days), LCC6MDR; assay type: cell-based, human; details: at 61 nM to 153 nM
Protocol: as §1

[4] = target: T2, CYP3A4 (Homo sapiens, UniProt P08684); assay: PTX metabolism in human liver microsomes: p3-OHP formation; assay type: in vitro ADME; details: HLM
T2 construct: tissue Research Institute for Liver Diseases (Shanghai); host or cells: 50-donor pooled human liver microsomes
T2 sequence (P08684 whole entry): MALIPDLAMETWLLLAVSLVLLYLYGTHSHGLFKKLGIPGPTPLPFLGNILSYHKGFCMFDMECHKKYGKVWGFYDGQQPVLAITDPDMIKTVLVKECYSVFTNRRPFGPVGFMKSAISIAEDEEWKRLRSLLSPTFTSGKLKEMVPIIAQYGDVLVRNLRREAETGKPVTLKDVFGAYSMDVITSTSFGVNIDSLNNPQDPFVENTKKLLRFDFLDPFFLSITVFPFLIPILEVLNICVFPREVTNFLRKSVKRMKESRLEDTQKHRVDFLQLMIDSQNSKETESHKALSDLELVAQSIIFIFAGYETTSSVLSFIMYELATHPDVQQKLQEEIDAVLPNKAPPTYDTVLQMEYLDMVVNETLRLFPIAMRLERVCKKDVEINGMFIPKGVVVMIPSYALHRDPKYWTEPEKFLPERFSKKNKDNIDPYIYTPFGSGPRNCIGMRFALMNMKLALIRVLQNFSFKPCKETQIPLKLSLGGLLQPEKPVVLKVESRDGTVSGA
Protocol: N = 2–3 independent experiments. […] N = 2–3 independent experiments.
Source parameters were as follows, gas temp (350 °C), gas flow (8 L/min), nebulizer (35 psi) and capillary (4000 V). […] Milli-Q with 0.1% formic acid was used as the aqueous phase.

[5] = target: T3, MRP1 (Homo sapiens, UniProt P33527); assay: MRP1-modulating activity in 2008/MRP1 cells (MTS); assay type: cell-based
T3 construct: expressed in transfected cells; host or cells: 2008/MRP1 (human ovarian cancer)
T3 sequence (P33527 whole entry): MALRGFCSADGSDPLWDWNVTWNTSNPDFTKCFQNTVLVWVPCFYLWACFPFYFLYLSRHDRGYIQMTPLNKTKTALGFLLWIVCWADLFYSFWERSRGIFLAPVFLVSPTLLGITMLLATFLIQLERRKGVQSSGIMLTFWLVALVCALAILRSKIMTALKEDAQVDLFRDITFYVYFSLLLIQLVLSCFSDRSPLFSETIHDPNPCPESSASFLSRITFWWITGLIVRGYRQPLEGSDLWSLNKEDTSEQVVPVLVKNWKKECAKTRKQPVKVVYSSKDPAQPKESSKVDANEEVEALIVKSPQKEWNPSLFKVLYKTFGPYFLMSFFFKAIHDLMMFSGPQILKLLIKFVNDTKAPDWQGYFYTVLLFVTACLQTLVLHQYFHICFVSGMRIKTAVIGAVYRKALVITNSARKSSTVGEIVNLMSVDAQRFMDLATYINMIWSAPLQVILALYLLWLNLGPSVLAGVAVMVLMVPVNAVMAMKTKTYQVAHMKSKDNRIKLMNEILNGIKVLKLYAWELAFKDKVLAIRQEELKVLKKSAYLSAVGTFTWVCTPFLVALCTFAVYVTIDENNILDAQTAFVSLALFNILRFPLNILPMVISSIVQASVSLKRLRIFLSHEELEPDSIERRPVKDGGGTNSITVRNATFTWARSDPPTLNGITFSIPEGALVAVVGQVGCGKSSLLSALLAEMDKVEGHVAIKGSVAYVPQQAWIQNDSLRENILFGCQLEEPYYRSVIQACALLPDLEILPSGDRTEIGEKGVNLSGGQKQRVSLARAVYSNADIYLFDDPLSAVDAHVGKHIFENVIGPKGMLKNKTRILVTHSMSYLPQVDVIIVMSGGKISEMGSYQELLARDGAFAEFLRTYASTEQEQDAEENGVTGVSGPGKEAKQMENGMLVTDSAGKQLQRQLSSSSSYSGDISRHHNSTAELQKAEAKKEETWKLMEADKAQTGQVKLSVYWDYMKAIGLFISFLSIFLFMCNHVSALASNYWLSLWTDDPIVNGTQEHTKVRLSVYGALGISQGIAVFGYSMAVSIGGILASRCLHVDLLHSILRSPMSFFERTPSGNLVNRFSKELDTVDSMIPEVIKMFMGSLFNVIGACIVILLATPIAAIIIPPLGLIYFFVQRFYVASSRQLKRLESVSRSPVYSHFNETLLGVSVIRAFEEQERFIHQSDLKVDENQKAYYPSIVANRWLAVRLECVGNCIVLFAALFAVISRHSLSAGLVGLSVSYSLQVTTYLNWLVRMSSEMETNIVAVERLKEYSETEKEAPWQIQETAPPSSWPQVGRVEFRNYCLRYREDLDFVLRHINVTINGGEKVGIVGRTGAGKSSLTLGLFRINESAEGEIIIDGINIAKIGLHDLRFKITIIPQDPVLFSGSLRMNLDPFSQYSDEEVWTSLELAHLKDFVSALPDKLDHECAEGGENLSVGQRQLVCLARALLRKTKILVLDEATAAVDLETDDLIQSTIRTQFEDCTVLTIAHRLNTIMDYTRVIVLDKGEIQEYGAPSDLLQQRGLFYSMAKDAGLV
Protocol: The final volume in each well of the 96-well plate was 200 μL. The plate was then incubated for 5 days at 37 °C. The cell viability was determined using an MTS assay as reported previously.

[6] = target: T1, P-gp; assay: Transepithelial transport of PTX, Caco-2 transwell assay; assay type: in vitro ADME
Protocol: Figure 7 Mechanistic study of FM04 to increase the oral PTX absorption. (A) transepithelial permeability of PTX in Caco-2 transwell assay. When confluent monolayer of Caco2 cells was formed on the transwell, the permeability of PTX (10 μM) was studied with or without FM04 (10 μM). For apical to basolateral transport (A to B), compound was added at the apical side (donor) and samples of the medium collected at the basal side (receiver) at 0, 20, 40, 60, 80, 100 and 120 min and vice versa for basal to apical transport (B to A). The PTX level was determined using UPLC-MS/MS. The relative % of PTX was presented as mean ± standard error of mean. N = 2–3 independent experiments. Impact of FM04 on PTX metabolism. […] After incubation, the levels of PTX, metabolites 6α-hydroxpaclitaxel (6α-OHP) and p3′-hydroxpaclitaxel (p3-OHP) were determined by HPLC-MS/MS. (B) changes in PTX. […]
Caco-2 cells in between passage number 21 and 30 were used for the experiment, 1 × 10^5 cells/cm^2 Caco-2 cells were seeded in Costar 6-well transwell plate (Corning Inc). […] The integrity of cell monolayers was evaluated on the day of experiments by measuring the trans-epithelial electrical resistance (TEER) of the cell monolayers. […] Drug transport was evaluated at 37 °C by incubating the cells in media containing PTX (10 μM) with or without FM04 (10 μM) at the donor chamber and samples collected at the receiver chamber. […]

[7] = test system: human melanoma MDA435/LCC6MDR xenograft; assay: In vivo efficacy in human melanoma MDA435/LCC6MDR xenograft; design: species or system Balb/c nude mice
Protocol: The treatment was given every other day for 12 times (q2d × 12) from day 0 to day 22. There were four treatment groups including (1) control: no treatment, (2) PTX alone (12 mg/kg, I.V.), (3) PTX alone (24 mg/kg, I.V.) and (4) combination treatment: FM04 (28 mg/kg, I.P.,−1 h) + PTX (12 mg/kg, I.V.).
Balb/c nude mice were subcutaneously xenografted with LCC6MDR. The treatment groups included (1) control—no treatment, (2) PTX (12 mg/kg, I.V.) alone, (3) PTX (24 mg/kg, I.V.) alone and (4) co-treatment: FM04 (28 mg/kg, I.P.) was injected 1 hr prior to PTX (12 mg/kg, I.V.). (A) tumor volume and (B) body weight were monitored throughout the treatment. The treatment was given to mice every other day for 12 times (q2d × 12) and indicated as an arrow. […] (C) Tumor-inhibition % on day 34 and tumor-doubling time after each treatment were determined. Number of animal deaths was monitored during the treatment. For the tumor volume at each time point, statistical analysis was conducted by one-way-ANOVA between co-treatment group and PTX alone treatment, * p < 0.05. /: not applicable.
The LCC6MDR tumor xenograft model was studied previously in [24]. Female Balb/c nude mice (4–6 week-old) were subcutaneously inoculated with 5 × 10^7cells of P-gp overexpressing LCC6MDR and allowed to develop tumor. Treatment began when a solid tumor of 150–200 mm^3 was formed. Tumor-bearing mice were randomized into four groups with 7–8 mice in each group: (1) control group—no treatment, (2) PTX alone (12 mg/kg, I.V.), (3) PTX alone (24 mg/kg, I.V.) and (4) co-treatment: FM04 (28 mg/kg, I.P.) was injected 1 hr before PTX (12 mg/kg, I.V.) administration. Tumor growth was measured by an electronic caliper on the injection day and the tumor volume was calculated using the following formula: Estimated tumor volume (mm^3)=l×w^2/2

T1 sequence (P08183 whole entry): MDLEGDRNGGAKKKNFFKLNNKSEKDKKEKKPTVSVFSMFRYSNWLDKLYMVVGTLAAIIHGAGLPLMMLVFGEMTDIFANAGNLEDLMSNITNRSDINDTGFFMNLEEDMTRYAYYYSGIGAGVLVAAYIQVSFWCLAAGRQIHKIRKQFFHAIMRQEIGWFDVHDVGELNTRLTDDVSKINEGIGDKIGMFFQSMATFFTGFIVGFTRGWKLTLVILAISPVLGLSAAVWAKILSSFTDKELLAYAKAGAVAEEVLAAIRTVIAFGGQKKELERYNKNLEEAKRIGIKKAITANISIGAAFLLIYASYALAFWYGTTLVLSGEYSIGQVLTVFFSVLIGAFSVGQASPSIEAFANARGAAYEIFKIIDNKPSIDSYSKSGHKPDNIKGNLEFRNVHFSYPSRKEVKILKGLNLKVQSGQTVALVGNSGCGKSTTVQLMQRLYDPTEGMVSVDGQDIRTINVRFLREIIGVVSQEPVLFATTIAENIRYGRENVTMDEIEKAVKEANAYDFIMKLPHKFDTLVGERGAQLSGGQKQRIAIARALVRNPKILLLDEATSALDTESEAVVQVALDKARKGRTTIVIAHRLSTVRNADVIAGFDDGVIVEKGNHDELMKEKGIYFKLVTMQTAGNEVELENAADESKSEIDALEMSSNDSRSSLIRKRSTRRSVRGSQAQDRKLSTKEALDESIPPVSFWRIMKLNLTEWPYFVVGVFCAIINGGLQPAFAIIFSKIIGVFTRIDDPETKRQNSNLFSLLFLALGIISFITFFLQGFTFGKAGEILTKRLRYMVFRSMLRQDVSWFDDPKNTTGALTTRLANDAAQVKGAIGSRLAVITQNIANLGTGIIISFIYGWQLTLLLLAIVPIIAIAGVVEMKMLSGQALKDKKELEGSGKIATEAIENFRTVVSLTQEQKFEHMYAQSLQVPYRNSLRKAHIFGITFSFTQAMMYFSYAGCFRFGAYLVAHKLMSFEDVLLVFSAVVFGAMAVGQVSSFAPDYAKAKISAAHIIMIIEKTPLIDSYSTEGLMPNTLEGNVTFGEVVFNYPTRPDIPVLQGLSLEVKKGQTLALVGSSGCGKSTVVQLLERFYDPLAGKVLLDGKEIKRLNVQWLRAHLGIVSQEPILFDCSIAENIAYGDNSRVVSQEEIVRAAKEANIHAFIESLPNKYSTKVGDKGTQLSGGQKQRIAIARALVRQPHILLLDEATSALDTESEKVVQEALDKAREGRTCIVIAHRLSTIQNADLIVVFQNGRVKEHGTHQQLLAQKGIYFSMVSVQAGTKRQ

EC50 [1] [nM] | reduction in p3-OHP ([4]; FM04 10 μM) [%] | reduction in p3-OHP ([4]; FM04 20 μM) [%] | reversal of MRP1-mediated DOX resistance ([5]; 1 μM, 2008/MRP1) | RF, DOX in 2008/MRP1 ([5]; IC50 without modulator / IC50 with 1 µM modulator) | decrease of PTX transport from B to A ([6]; PTX 10 μM + FM04 10 μM) [%] | SMILES | IC50 at 3 days [2] [nM] | cytotoxicity of FM04 alone towards LCC6MDR cells [3] | Tumor doubling time (Td) ([7]; PTX 12 mg/kg I.V., q2d × 12) [days] | fold reduction in tumor volume ([7]; PTX 24 mg/kg I.V.) [fold] | weight loss ([7]; PTX 24 mg/kg I.V.) [%] | No. of animal death ([7]; PTX 24 mg/kg I.V., q2d × 12) | direction of transepithelial transport of PTX ([6]; PTX 10 µM without FM04)
64 | 42 | 51 | did not reverse | 1.2 | 17 | O=c1cc(-c2ccc(OCCOCCNCc3ccccc3)cc2)oc2ccccc12 [FM04, 2-(4-(2-(2-(benzylamino)ethoxy)ethoxy)phenyl)-4H-chromen-4-one] | 5700 ± 1500 | did not exhibit cytotoxicity | – | – | – | – | –
– | – | – | – | – | – | CC(=O)O[C@H]1C(=O)[C@@]2(C)[C@H]([C@H](OC(=O)c3ccccc3)[C@]3(O)C[C@H](OC(=O)[C@H](O)[C@@H](NC(=O)c4ccccc4)c4ccccc4)C(C)=C1C3(C)C)[C@]1(OC(C)=O)CO[C@@H]1C[C@@H]2O [PTX, paclitaxel] | – | – | 10 | 2.5 | > 15 | 4 out of 6 | only pumped from B to A, but not A to B
